This is an account of results in publication PMC9372421 (Clinical and Translational Science, 2022).

Data set [1] addresses T1, human NaV1.5 sodium channel (Homo sapiens, UniProt Q14524).
For data set [2], the target named is T1, human NaV1.5 sodium channel. It counts as cell-based.
For data set [3] the following is noted: cited from earlier work.
Data set [4] has as its target T1, human NaV1.5 sodium channel. This is another data set of the same source.
The next data set has as its system hERG potassium channel. As to conditions: cited from earlier work.
For data set [5], the target named is T1, human NaV1.5 sodium channel. This is another data set of the same source.
For data set [6] the following is noted: human, in vivo.
The conditions of data set [7]: lamotrigine containing regimens vs. no ASMs, cited from earlier work.
Data set [8] addresses T1, human NaV1.5 sodium channel. In words: cell-based. The following applies: IC50 block of peak NaV1.5 current, HEK293, mean ± SEM.
For data set [9] the following is noted: lamotrigine 15 μg/ml; cited from earlier work.
Another data set concerns canine purkinje fibers. The following applies: 30 μM; historical nonclinical assessment, data not reported; cited from earlier work.
The conditions of data set [10]: healthy subjects; cited from earlier work.
For data set [11] the following is noted: human, in vivo. The source holds these as a separate data set.
Data set [12] addresses T1, human NaV1.5 sodium channel. Put plainly: cell-based. The following applies: IC50 block of late NaV1.5 current, mean ± SEM.
The mark [13] stands for this setting: each drug at or near its IC50, lamotrigine 280 μM, mean ± SEM.
[14] abbreviates: each drug at or near its IC50, V hold = −120 mV.
[15] abbreviates: each drug at or near its IC50, lamotrigine 280 µM, V hold = −120 mV.

The structures appear in SMILES notation. ≈ marks a conversion by molar mass, not a printed value. Where “and” joins values, the source holds several entries; their conditions need not be identical. Equal entries are not always repeated. Where two headings read alike, the source gives them in different places.

T1 sequence (Q14524 whole entry): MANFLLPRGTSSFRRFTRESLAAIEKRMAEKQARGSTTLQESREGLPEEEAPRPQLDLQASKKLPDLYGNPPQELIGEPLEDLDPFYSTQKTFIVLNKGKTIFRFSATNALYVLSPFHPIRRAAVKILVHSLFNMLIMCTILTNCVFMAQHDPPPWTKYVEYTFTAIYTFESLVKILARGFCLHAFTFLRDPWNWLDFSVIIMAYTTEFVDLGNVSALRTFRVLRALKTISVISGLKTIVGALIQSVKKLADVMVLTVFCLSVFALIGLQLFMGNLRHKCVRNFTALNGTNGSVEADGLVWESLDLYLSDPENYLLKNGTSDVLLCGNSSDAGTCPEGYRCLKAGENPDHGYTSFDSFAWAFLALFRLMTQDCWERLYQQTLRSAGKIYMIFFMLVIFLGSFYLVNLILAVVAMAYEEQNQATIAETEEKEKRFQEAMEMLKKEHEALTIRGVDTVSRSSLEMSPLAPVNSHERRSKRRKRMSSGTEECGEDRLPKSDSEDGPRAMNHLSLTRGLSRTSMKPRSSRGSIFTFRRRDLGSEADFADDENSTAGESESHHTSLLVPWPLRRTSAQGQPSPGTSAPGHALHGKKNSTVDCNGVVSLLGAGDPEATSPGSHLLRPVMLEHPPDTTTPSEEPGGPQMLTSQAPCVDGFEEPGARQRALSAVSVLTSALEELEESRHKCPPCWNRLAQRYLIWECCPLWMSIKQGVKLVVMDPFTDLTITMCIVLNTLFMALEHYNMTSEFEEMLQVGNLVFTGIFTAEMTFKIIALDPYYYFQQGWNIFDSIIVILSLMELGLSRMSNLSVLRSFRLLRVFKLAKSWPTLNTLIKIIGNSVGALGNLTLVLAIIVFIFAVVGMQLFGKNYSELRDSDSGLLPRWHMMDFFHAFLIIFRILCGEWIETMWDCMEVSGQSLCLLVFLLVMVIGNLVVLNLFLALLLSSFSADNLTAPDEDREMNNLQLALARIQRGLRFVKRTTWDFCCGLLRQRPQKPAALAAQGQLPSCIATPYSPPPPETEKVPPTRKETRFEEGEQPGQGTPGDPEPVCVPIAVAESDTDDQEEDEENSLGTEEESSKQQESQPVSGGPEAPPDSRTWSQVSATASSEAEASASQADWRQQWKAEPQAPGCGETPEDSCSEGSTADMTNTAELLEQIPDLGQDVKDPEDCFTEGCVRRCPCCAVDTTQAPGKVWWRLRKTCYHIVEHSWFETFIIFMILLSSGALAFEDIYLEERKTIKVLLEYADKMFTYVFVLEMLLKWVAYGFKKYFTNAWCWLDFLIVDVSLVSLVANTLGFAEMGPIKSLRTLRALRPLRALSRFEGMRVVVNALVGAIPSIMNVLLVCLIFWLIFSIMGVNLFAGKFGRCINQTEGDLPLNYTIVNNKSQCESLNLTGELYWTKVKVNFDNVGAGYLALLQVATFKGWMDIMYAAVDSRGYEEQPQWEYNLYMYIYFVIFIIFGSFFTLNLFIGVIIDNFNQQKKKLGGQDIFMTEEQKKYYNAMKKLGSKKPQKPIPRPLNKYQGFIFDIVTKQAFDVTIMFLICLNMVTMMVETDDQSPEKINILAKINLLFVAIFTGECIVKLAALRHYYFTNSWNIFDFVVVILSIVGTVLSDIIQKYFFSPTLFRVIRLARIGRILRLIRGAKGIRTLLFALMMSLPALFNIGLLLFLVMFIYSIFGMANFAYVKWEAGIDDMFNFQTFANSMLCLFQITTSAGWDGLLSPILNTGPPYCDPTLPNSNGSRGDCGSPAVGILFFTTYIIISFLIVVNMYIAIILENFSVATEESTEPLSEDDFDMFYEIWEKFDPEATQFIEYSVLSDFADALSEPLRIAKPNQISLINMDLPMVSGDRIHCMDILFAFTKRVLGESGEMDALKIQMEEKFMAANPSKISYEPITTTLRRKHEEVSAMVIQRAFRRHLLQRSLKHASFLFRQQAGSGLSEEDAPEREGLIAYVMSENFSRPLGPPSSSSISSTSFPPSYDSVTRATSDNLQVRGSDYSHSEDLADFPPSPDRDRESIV

For `O=C(NCC1CCCCN1)c1cc(OCC(F)(F)F)ccc1OCC(F)(F)F` (centres unmarked) [flecainide], in [1] (setting [13]), the “Tonic block of NaV1.5, percent inhibition” value was found to be 1.6 ± 1.2%. Further, in data set [2] (setting [14]), the “τon contribution by the slow component of the exponential” value is recorded as 45.1%. For the same compound, the “τon Percent Fast” value in data set [2] (setting [15]) worked out at 54.9%.
Broadly, the IC50 is the concentration that inhibits the measured activity by half. As to `Nc1nnc(-c2cccc(Cl)c2Cl)c(N)n1` [lamotrigine, Lamotrigine], in data set [3], the “concentrations expected in over 95% of patients” value is listed as “below 15 μg/ml” and the “highest values for peak concentrations reported in patients” value is ~ 20 μg/ml. Besides, the “fold difference in potency at a depolarized potential” value in data set [4] was 10 fold. Moreover, in the data set with hERG potassium channel, the IC50 is 229 µM and the “potency (IC50) to block the hERG potassium channel” value was 58.6 µg/mL (≈ 229 µM). For the same compound, in data set [5], the “recovery from block, rate fold faster than quinidine” value is given as 1.4 fold. In addition, in [5] (high concentration of lamotrigine), the “off-rate kinetics fold faster than flecainide” value is listed as above 86 fold. Moreover, the “τoff slow component, fold faster than quinidine's slow time constant” value in data set [5] (lamotrigine 25 μM) is 2.4 fold. For the same compound, in data set [5] (lamotrigine 25 µM, −120 mV), the “τoff Percent Fast” value was determined as 58.0%, the “τoff Tau fast” value came out at 0.8 ± 0.1 s and the “τoff Tau slow” value worked out at 15.6 ± 5.0 s. In [6], this compound registered a free concentration of 6600 ng/mL and a peak unbound concentration of 3.15 to 24.5 µM. In addition, the “Tonic block of NaV1.5, percent inhibition” value in data set [1] (setting [13]) is reported as 26.8 ± 1.4%. The “Tonic block of NaV1.5, percent inhibition” value in data set [1] (lamotrigine 25 μM, mean ± SEM) is reported as 2.6 ± 2.1%. Further, in data set [2], the “τon fast component, fold of mexiletine” value is recorded as at most 1.6 fold. Further, the “τon Percent Fast” value in data set [2] (setting [15]) is recorded as above 92%. Besides, the “% block at 200th pulse” value in data set [2] (lamotrigine 25 µM, V hold = −120 mV) was 25.5 ± 1.5% and 26%. Also, in data set [2] (lamotrigine versus flecainide), the “τon fast component, fold faster than flecainide” value was 8.4 fold. Further, in data set [2] (lamotrigine versus quinidine), the “τon fast component, fold faster than quinidine” value is on record as 4.7 fold. The “SUDEP odds ratio (OR)” value in data set [7] (95% CI: 0.31–0.97) is recorded as 0.55. Further, the “reduction in SUDEP risk” value in data set [7] is 45%. In data set [8] (V hold = −95 mV, 0.1 Hz), the IC50 is 28.8 µM and 28.9 µM. In addition, half-maximal inhibition in [8] (V hold = −120 mV) (IC50) was put at 280 µM. The “percent of the maximum effect of flecainide” value in data set [9] is on record as ~ 29%. In addition, the “expected increase in PR interval (absolute values)” value (at 15 μg/ml, healthy subjects, outlier included) is 18.15 ms. For the same compound, the “decrease in QRS interval (absolute values)” value (at 15 μg/ml, outlier included) was 5.94 ms. The “expected PR prolongation relative to baseline” value (at ~20 μg/ml, highest peak concentrations reported in patients) came to 8.24 ms. For the same compound, the “increase in PR interval as change from baseline” value (healthy subjects, outlier included) is given as “up to 6.18 ms”. Further, under “human, in vivo”, the “mean PR interval” value is reported as 169 ms. Where the note is “outlier included”, the “slope in PR change from baseline per μg/ml of lamotrigine” value is 0.412 ms/µg/mL and the “subjects with QRS interval >120 ms while on lamotrigine” value is on record as “None”. For the same compound, the “inhibition of action potential upstroke (dV/dt)” value in the data set on canine purkinje fibers is on record as below 10%. For the same compound, in data set [10], the “QTc interval, QRS duration, or blood pressure” value was “no increase”; the QTcF result is listed as “small reductions”; the “heart rate and mean PR interval” value was “small increases”. Further, in [11], the “safety reports relating to the circulatory system” value was 1483 reports and the “safety reports relating to the circulatory system, share of all reports” value is 0.021%. Moreover, the IC50 in [12] (ramp epoch) is 12.1 µM. Moreover, the IC50 in data set [12] (−15 mV epoch) amounted to 17.2 µM.
Regarding `Cc1cccc(C)c1OCC(C)N` (centres unmarked) [mexiletine], in data set [5], the “τoff Percent Fast” value came to 83.2% and the “τoff Tau fast” value was 0.8 ± 0.03 s. Also, the “Tonic block of NaV1.5, percent inhibition” value in data set [1] (human) amounted to 9.2 ± 1.5%. The “τon Percent Fast” value in data set [2] was 92.9% and > 92%.
Take `C=C[C@H]1C[N@@]2CC[C@H]1C[C@@H]2[C@@H](O)c1ccnc2ccc(OC)cc12` [quinidine]: the “τoff Tau slow” value in data set [5] (each drug at or near its IC50, −120 mV) worked out at 37.7 ± 5.9 s. Besides, the “Tonic block of NaV1.5, percent inhibition” value in data set [1] (setting [13]) amounted to 6.7 ± 1.2%. Also, the “τon contribution by the slow component of the exponential” value in data set [2] (setting [14]) came out at 26.1%.
